The values that follow come from article PMC6652260 (Endocrine Connections, 2019).

Experiment [1] has as its target T1, human placental HSD11B2 (Homo sapiens, UniProt P80365).
T1 sequence (P80365 1-405): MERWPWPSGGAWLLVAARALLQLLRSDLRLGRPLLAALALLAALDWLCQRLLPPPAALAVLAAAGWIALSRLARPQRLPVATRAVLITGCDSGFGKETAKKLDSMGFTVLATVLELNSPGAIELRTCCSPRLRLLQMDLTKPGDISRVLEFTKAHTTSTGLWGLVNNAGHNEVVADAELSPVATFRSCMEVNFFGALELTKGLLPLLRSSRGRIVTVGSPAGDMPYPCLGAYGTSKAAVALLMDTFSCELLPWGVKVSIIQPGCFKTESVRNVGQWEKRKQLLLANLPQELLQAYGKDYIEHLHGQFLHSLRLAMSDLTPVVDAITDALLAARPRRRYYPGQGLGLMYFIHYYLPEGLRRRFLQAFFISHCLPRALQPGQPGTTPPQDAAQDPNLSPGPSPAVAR
Kind of experiment: Human placental microsomal HSD11B2 activity assay. The format is biochemical.

Experiment [2] concerns human trophoblast cell lines BeWo and HTR-8. The note with it: DES at pM, BeWo and HTR-8 cells; cited from earlier work.
Experiment [3] concerns cultured trophoblast cells. The note with it: cited from earlier work.

In general, IC50 refers to the midpoint of a concentration-inhibition curve. The low end stands for inhibition by little substance, the high end for a need for much substance. As usually defined, the inhibition is how much of the control response was suppressed. `CC/C(=C(/CC)c1ccc(O)cc1)c1ccc(O)cc1` [DES, Diethylstilbestrol] gave an IC50 in experiment [1] of 12.6 µM. For the same molecule, in experiment [1] (cofactor NAD+ varied, human placental microsomes), the “Mode of action versus cofactor NAD+ (Lineweaver–Burk), human HSD11B2” value was “uncompetitive inhibitor”. In addition, the “Mode of action versus steroid substrate (Lineweaver–Burk), human HSD11B2” value in experiment [1] (cortisol as the substrate, human placental microsomes) was “competitive inhibitor”. In addition, the inhibition at 100 µM in experiment [1] (read-out: Inhibition of human placental HSD11B2 activity) was above 50%. Also, in experiment [2], the “Effect on human β-chorionic gonadotropin (β-hCG) secretion” value was “can inhibit”.

As to `CC1(C)[C@@H](OC(=O)CCC(=O)O)CC[C@]2(C)[C@H]3C(=O)C=C4[C@@H]5C[C@@](C)(C(=O)O)CC[C@]5(C)CC[C@@]4(C)[C@]3(C)CC[C@@H]12` [carbenoxolone], the “Effect on secretion of human chorionic gonadotropin” value in experiment [3] was “stimulated secretion”.
